In US11479601B2, “Antibodies specific to Sonic Hedgehog and method of use thereof” (The Regents of the University of California, priority 2016, dated 2022):
Entries after “also recorded” stand apart in the source; their conditions may differ.

What was measured:
A549 Shh− cells = assay: Migration/wound healing assay on A549 Shh− cells; assay type: cell-based, human; settings: Shh recombinant protein 1200 ng/mL, day 3
Protocol: Migration assay was performed by wound healing assay. Monolayers of cells were: cultured, scratched, treated with media containing proteins and/or drugs at different concentrations: Shh protein, DMSO, and GDC0449, and recorded 0 and 24, 72 and 96 hours after treatment.
Wound healing assays were performed to study cell migration. Monolayers of cells were cultured, scratched, treated with media containing proteins and/or drugs at different concentrations: Shh protein, DMSO, and GDC0449-recorded at 0, 24, 72 and 96 hours after treatment.

Shh+ cells (A549) = assay: Shh rate by flow cytometry in drug-treated A549 cells; assay type: cell-based, human
Protocol: FACS (1:40). The secondary antibody was a donkey anti-mouse FITC-linked antibody (ab97029, 1:100, Abcam). For cell analysis after treatment assays (chemotherapy or GDC0449), a dead cell marker (SytoxRed, Invitrogen) was also used. For human fresh samples, an anti-CD45 APC-linked antibody (ab28106, 1:100, Abcam), and a dead cells marker (SytoxRed, Invitrogen) were added. For staining of stable transfected cell lines, mouse anti-HA antibody (Abcam, 1:100) and rabbit anti-FLAG antibody (Cell Signaling; 1:400) were used. Corresponding secondary antibodies were donkey anti-mouse AlexaFluor647 (Invitrogen, 1:1000) and donkey anti-rabbit AlexFluor594 (Invitrogen, 1:1000) antibodies. Flow cytometry analyses were performed on AccuriC6 flow cytometer (BD Biosciences), and FACS on FACSAria II (BD Biosciences). Flow analyses were based at least on 200,000 cells, and each test was made at least in triplicate. For all experiments, a negative control with cells processed without primary antibody was used. Sorted cells (Shh+ and Shh− cells) were collected on fresh media, and seeded on culture plates or freezed at −80° C. according to further analyses. Flow cytometry analysis was performed without membrane permeabilization prior to labeling the cells, unless otherwise indicated (e.g., FIG. 1D). Cisplatin was purchased from Sigma, and freshly reconstituted in PBS (2 g/1). Docetaxel was purchased from Tocris Bioscience, reconstituted in DMSO (5 g/1 stock dilution at −20° C.; further dilution in fresh culture medium) for in vitro assays, or reconstituted in ethanol/polysorbate 80 (1:1; 5 g/1 stock dilution at −20° C.; further dilution in PBS) for in vivo assays. GDC0449 was purchased from Selleck Chemicals, and reconstituted in DMSO (30 mM stock dilution). Shh human recombinant protein was obtained from EBioscience, and used at 1200 ng/ml. The mouse Shh-C-terminal antibody (mentioned above) was used for flow cytometry and FACS (1:40). The secondary antibody was a donkey anti-mouse FITC-linked antibody (ab97029, 1:100, Abcam). For cell analysis after treatment assays (chemotherapy or GDC0449), a marker for dead cells (SytoxRed®, Invitrogen) was also used. For fresh human samples, an anti-CD45 APC-linked antibody (ab28106, 1:100, Abcam) was added, and a marker for dead cells (SytoxRed®, Invitrogen). For staining of stable transfected cell lines, a mouse anti-HA antibody (Abcam, 1:100) and a rabbit anti-FLAG antibody (Cell Signaling; 1:400) were used. Corresponding secondary antibodies were donkey anti-mouse AlexaFluor647 (Invitrogen, 1:1 000) and donkey anti-rabbit AlexFluor594 (Invitrogen, 1:1 000). Flow cytometry analyses were performed on an AccuriC6 flow cytometer (BD Biosciences), and FACS on a FACSAria II (BD Biosciences). […]

Shh gene expression = Shh gene expression by qPCR in drug-treated A549 cells; assay type: cell-based, human
Protocol: RNA from unsorted cells was extracted with Qiagen Rneasy® Minikit (Quiagen), according to manufacturer instructions. RNA from sorted cells was extracted with Arcturus PicoPure RNA Isolation Kit (Life technologies). cDNA was then synthesized with iScript cDNA Synthesis Kit (Bio-Rad), according to manufacturer instructions. Commercial primers for Shh gene were obtained from Origen. Quantitative PCR was performed on Applied Biosystems' 7900HT Fast Real-Time PCR System, with triplicate for each gene analysis. Gene expression analysis was calculated with deltaCT method, with normalization with endogenous control (18s gene) (normalized gene expression level=2^−deltaCT(test gene)−deltaCT(18s)). For ddPCR, droplets creation, PCR and results analysis were performed according to manufacturer instructions (BioRad, QX100 ddPCR System, Quantasoft software). Results of ddPCR were expressed as FAM concentrations (copies/μl). RNA from unsorted cells was extracted with Qiagen's RNeasy Mini kit (Qiagen) according to the manufacturer's instructions. […] Quantitative RT-PCR (qRT-PCR) was performed on an Applied Biosystems 7900HT Fast Real-Time PCR System, in triplicate for each sample. Gene expression analysis was calculated with the delta-deltaCT method normalized to an endogenous control (18S gene). […] Results of ddPCR were expressed as FAM concentrations (copies/0).

A549 cells [1] = assay: Viability of A549 cells treated with Shh antibodies ± GLI inhibitor 249C; assay type: cell-based, human; settings: Homo sapiens, A549
Protocol: The effect of the C-terminal Shh antibodies from clones 2G4 and 2D9 on the viability of A549 cells was determined. A549 cells were exposed to increasing concentrations of the C-terminal Shh antibodies (2G4, 2D9), or antibodies against the N-terminal portion of Shh protein (6D3, 2E1), and the effective dose (ED50) was determined (assay 1: FIG. 16A; assay 2: FIG. 16B). […] Possibly due to the fact that very few cells express full-length Shh on the cell surface, the cytotoxic effect of the C-terminal Shh antibodies was not as potent as the cytotoxic effect of the N-terminal antibodies.
Next, the cytotoxicity of the C-terminal Shh antibodies was tested when the antibodies were used in conjunction with a small-molecule inhibitor of GLI zinc-finger transcription factor signaling, 249C (4-(5-chlorofuran-2-yl)-1,3-bis(2,4-difluorophenyl)-5-methyl-N-((4-methylmorpholin-2-yl)methyl)-4,5-dihydro-1H-pyrazole-5-carboxamide; Compound 135 above). A549 cells were exposed to varying concentrations of the C-terminal antibodies (2G4, 2D9) or the N-terminal antibodies (6D3, 2E1), in the presence or absence of a very low dose (40 nM) of 249C. (The IC50 of 249C in A549 cells is ˜70 nM.)

[2] = biological target: full-length human Sonic Hedgehog (Shh) expressed in cells (endogenous, or transfected with pCMV-Shh) (human) (UniProt Q15465); assay: flow cytometry, cells transfected with full-length Shh
[3] = biological target: full-length human Sonic Hedgehog (Shh) expressed in cells (endogenous, or transfected with pCMV-Shh) (human) (UniProt Q15465); assay: FACS of non-permeabilised A549 cells
[4] = biological target: full-length human Sonic Hedgehog (Shh) expressed in cells (endogenous, or transfected with pCMV-Shh) (human) (UniProt Q15465); assay: flow cytometry of ground up permeabilised A549 xenograft tumour cells from control IgG-treated mice
[5] = biological target: full-length human Sonic Hedgehog (Shh) expressed in cells (endogenous, or transfected with pCMV-Shh) (human) (UniProt Q15465); assay: flow cytometry, untransfected cells (No transfection)
[6] = biological target: full-length human Sonic Hedgehog (Shh) expressed in cells (endogenous, or transfected with pCMV-Shh) (human) (UniProt Q15465); assay: flow cytometry, A549 + vector control (endogenous Shh)
[7] = biological target: full-length human Sonic Hedgehog (Shh) expressed in cells (endogenous, or transfected with pCMV-Shh) (human) (UniProt Q15465); assay: flow cytometry, A549 cells transfected with pCMV-Shh
[8] = biological target: full-length human Sonic Hedgehog (Shh) expressed in cells (endogenous, or transfected with pCMV-Shh) (human) (UniProt Q15465); assay: FACS of non-permeabilised A549 cells labeled with the antibody; Total Cells Sorted 19 million, % Shh+ Cells 0.06%
advanced-stage SCLC = settings: cisplatin/etoposide with or without vismodegib, first line; cited from earlier work
[9] = test system: Shh+ cells in A549 xenografts; assay: Shh rate in A549 xenografts of drug-treated nude mice; assay type: in vivo
Protocol: For xenograft formation, female nude mice, 5 to 10 weeks old, were injected subcutaneously (SC) with 10 million A549 cells in the dorsal area in a volume of […]. For SC inoculation of sorted cells, 1,500 cells of A549 Shh+ or Shh− cells were injected in a volume of […]. For intra-veinous injection of sorted cells, 1,000 cells of A549 Shh+ or Shh− cells were injected in the tail vein. For the in vivo treatment assay, after xenograft formation, animals were injected intravenously with cisplatin (10 mg/kg weekly), docetaxel (10 mg/kg twice a week) or vehicle, and intraperitoneally with GDC0449 (20 mg/kg daily) or vehicle. Each group consisted in 4-5 mice. Tumor size was determined twice a week, and tumor volumes were calculated using width (x) and length (y) (x^2y/2, where x<y). Tumors were collected after mice euthanasia, and cell dissociation was performed as for fresh human samples (cf supra). Flow cytometry and FACS were done as described supra. All animals were cared in accord with University of California San Francisco (UCSF) guidelines.
For xenograft formation, 5-10 week-old female nude mice, were injected subcutaneously (SC) with 10 million A549 cells in the dorsal area in a volume of 100 μl. […] Tumor size was determined twice a week, and tumor volumes were calculated using width (x) and length (y) (x^2y/2, where x<y). […]

[10] = test system: most chemo-resistant NSCLC cell lines; settings: previous study; cited from earlier work
A549 cells [11] = assay: Proliferation (MTS) and migration/wound healing assay on A549 cells; assay type: cell-based, human; settings: GDC0449
Protocol: Proliferation assay was performed by MTS assay (CellTiter 96, Promega), according to manufacturer instructions. […] Migration assay was performed by wound healing assay. Monolayers of cells were: cultured, scratched, treated with media containing proteins and/or drugs at different concentrations: Shh protein, DMSO, and GDC0449, and recorded 0 and 24, 72 and 96 hours after treatment. MTS proliferation assays were performed (CellTiterGlo 96, Promega) according to the manufacturer's instructions. […] Wound healing assays were performed to study cell migration. Monolayers of cells were cultured, scratched, treated with media containing proteins and/or drugs at different concentrations: Shh protein, DMSO, and GDC0449-recorded at 0, 24, 72 and 96 hours after treatment.

A549 cells [12] = assay: Tumor formation after inoculation of GDC0449 pre-treated A549 cells; assay type: in vivo, nude mice; settings: A549 cells pre-treated with 40 μM GDC0449, 1 million cells subcutaneous, versus DMSO pre-treated
From the text: Then, nude mice were inoculated (sub-cutaneous) with 1 million treated cells (still adherent to the culture flask after treatment with GDC0449). […] Then, nude mice were inoculated subcutaneously with 1 million treated cells (still adherent to the culture flask after treatment with GDC0449).

advanced SCLC = settings: sonidegib in addition to cisplatin/etoposide; cited from earlier work
[13] = biological target: T1, recombinant full-length Shh protein (human, UniProt Q15465 24-462, limits assumed); assay: BLI (Octet), response (nm) against Shh conc (nM), four points between about 28 and 165 nM, fitted line, R2 = 0.97
T1 construct: Printed only as 'full-length recombinant Shh protein'; also called full-length recombinant Shh protein

[14] = biological target: T1, recombinant full-length Shh protein; assay: BLI (Octet), response (nm) against Shh conc (nM), four points between about 28 and 165 nM, fitted line, R2 = 0.98

## human recombinant N-terminal Shh peptide: Shh human recombinant protein from eBioscience, used at 1200 ng/ml
A549 Shh− cells
  augmentation in the migration rate: 15%

## N.N.[Cl][Pt][Cl] [cisplatin]
Shh+ cells (A549); A549 cells, cisplatin 1 mM, 72 h
  Shh rate, Shh+ cells of live cells: 5%
Shh+ cells (A549); NSCLC cells, escalating doses of cisplatin
  Shh rate with escalating doses: absolute augmentation
Shh gene expression; after cisplatin treatment
  Shh gene expression (qPCR): elevation

## CN1CCOC(CNC(=O)C2(C)C(c3ccc(Cl)o3)C(c3ccc(F)cc3F)=NN2c2ccc(F)cc2F)C1 (stereo not drawn) [Ab 249C, 4-(5-chlorofuran-2-yl)-1,3-bis(2,4-difluorophenyl)-5-methyl-N-((4-methylmorpholin-2-yl)methyl)-4,5-dihydro-1H-pyrazole-5-carboxamide]
A549 cells [1]
  IC50: ~70 nM

## commercial C-terminal Shh antibody (Abcam ab53281, rabbit)
[2]
  % of cells labeled: 2.45%
[3]
  % Shh+ cells sorted: 0.06%
[4]
  % Shh-labeled cells: 80%
[5]
  % of cells labeled: 0.11%
[6]
  % of cells labeled: 1%
[7]
  % of cells labeled: 5.1%
[8]
  # Shh+ Cells: 3810 cells

## CS(=O)(=O)c1ccc(C(=O)Nc2ccc(Cl)c(-c3ccccn3)c2)c(Cl)c1 [GDC0449]
advanced-stage SCLC
  response rate, PFS or OS: No effect
[9]; cisplatin 10 mg/kg IV weekly, then GDC0449 20 mg/kg IP daily
  Shh rate in A549 xenografts, sequential assay: significant reduction
[9]; docetaxel 10 mg/kg twice a week plus GDC0449 20 mg/kg IP daily
  Shh rate in A549 xenografts, combination treatment compared to chemotherapy alone: significant reduction
[10]
  effect with cisplatin in vitro: synergistic effect
Shh+ cells (A549); A549 cells, cisplatin or docetaxel plus GDC0449 40 μM
  Shh rate post-chemotherapy combined with GDC0449 compared to chemotherapy alone: significant decrease; also recorded: decreased significantly
Shh+ cells (A549); GDC0449 40 μM, day 3
  Shh+ cells in pre-inoculated A549 cells: 0%
A549 cells [11]
  cell proliferation and migration: inhibition of cell proliferation and migration
A549 cells [12]
  tumor formation from pre-treated cells: completely inhibited
Shh gene expression; post-GDC0449 treatment, 20 μM and 40 μM
  Shh gene expression (qPCR): dramatic decrease

## Cc1c(C(=O)Nc2ccc(N3C[C@@H](C)O[C@@H](C)C3)nc2)cccc1-c1ccc(OC(F)(F)F)cc1 [sonidegib, N-[6-[(2S,6R)-2,6-Dimethylmorpholin-4-yl]pyridin-3-yl]-2-methyl-3-[4-(trifluoromethoxy)phenyl]benzamide]
Advanced SCLC
  response rate: 79%

B1: Ab 1C11-2D9 (antibody, mouse IgG1, kappa, V domains shown)
VH: EVKLVESGGGLVKPGGSLKLSCAASGFTFSSYTMSWVRQTPAKRLEWVATISSGGGNTYYPDSVKGRFTISRDNARNTLYLQMSSLRSEDTAMYYCARDYRSLFAYWGQGTLVTVSA
VL: QIVLTQSPAIMSASPGEKVTITCSASSSVSYMHWFQQKPGTSPKLWIYSTSNLASGVPARFSGSGSGTSYSLTISRMEAEDAATYYCQQRSSYPFTFGSGTKLEIKR
notes: also called clone 2D9; Ab11-2D9
[13]
  Kd: 4.6 nM

B2: Ab 1C11-2G4 (antibody, IgG1, V domains shown)
VH: B1 VH
VL: QIVLTQSPAIMSASPGEKVTITCSASSSVSYMHWFQQKPGTSPKLWIYSTSNLASGVPARFSGSGSGTSYSLTISRMEAEDAATYYCQQRSSYPFTFGSGTKLEIK
notes: also called clone 2G4; Ab 2G4
[14]
  Kd: 4 nM
